Measurements published in US20090192198A1, “INHIBITORS OF THE 11-BETA-HYDROXYSTEROID DEHYDROGENASE TYPE 1 ENZYME” (Abbott Laboratories, priority 2005, published 2009).

Key:
Fisher rats = test: Rat wake EEG power spectrum and REM sleep parameters; format: in vivo; conditions: 30 mg/kg, 3 times at 24, 26, and 0.1 hours before measurement
Procedure: EEG of Fisher rats (n=8/group) with chronically implanted supracortical EEG-electrodes were analyzed for an 8 h period. Intraindividual drug-induced changes of power spectra were analyzed. For REM sleep the number of REM episodes, latency to first REM, and total REM time was analyzed.

Male Sprague Dawley rats = test: Short-term social recognition memory in the rat; format: in vivo; conditions: 30 mg/kg po at 24, 18 and 1 hour before first juvenile exposure, vs vehicle control rats (FIG. 4)
Procedure: Social memory and social cognition are impaired in disorders such as Alzheimer's disease and schizophrenia. One of the more commonly used preclinical models of social recognition memory is short-term social recognition in the rat, a model of short-term memory based on the recognition of a juvenile rat by an adult rat. […] The juvenile rat is then removed and reintroduced 120 min later, and interactive behavior of the adult rat is again monitored. If memory has been lost over the interval between trials 1 and 2, the extent of interaction is equal (expressed as a ratio of investigation time of T1/T2) and the ratio will be close to 1. However, if the adult remembers the juvenile, the investigation ratio declines. To test for non-specific effects, a novel juvenile is introduced at 120 minutes instead of the familiar juvenile. […]
Rats were pre-dosed po at 24, 18 and 1 hour before first juvenile rat exposure with vehicle, or Compound CC (30 mg/kg). […] The time the adult spent exploring (sniffing, grooming, close following) the juvenile during this test session was recorded, and defined as the first investigation duration. […] Data were analyzed using a one-way analysis of variance. If there was a significant effect, subsequent post hoc significance was determined using Dunnett's multiple comparison testing (p<0.05 was regarded as significant).

[1] = system: acetylcholine release (mPFC, hippocampus); test: Microdialysis, cortical/hippocampal acetylcholine release; format: in vivo, rat; conditions: single administration 30 mg/kg, p.o.
Procedure: (§1) Microdialysis studies (resting or challenging conditions) in freely moving, male Sprague Dawley rats (Janvier, 295-315 g, n=5-8/treatment group) were performed using stereotactically instrumented microdialysis probes (CMA/12-14-2): mPFC, hippocampus. Aliquots of the same microdialysate fractions (6 before, and 9-12 after compound administration) were analyzed either for acetylcholine or for serotonin by HPLC and electrochemical detection.

[2] = system: serotonin (5-HT) levels (medial prefrontal cortex, hippocampus); test: Microdialysis, cortical/hippocampal serotonin release; format: in vivo, rat; conditions: single administration 30 mg/kg, p.o.; medial prefrontal cortex and hippocampus (FIGS. 7a, 7b)
Procedure: as §1
This is a feature shared by marketed anti-depressive drugs and might indicate the potential use for 11β-HSD1 inhibitors as antidepressants/anxiolytic drugs. These findings remain to be confirmed by (i) investigating 11β-HSD1 inhibitors from different chemotype(s) in selected microdialysis studies and/or (ii) in animal models of depression/anxiety.

phosphorylated CREB = test: Phosphorylated CREB immunohistochemistry in brain after food-in-diet dosing; format: in vivo, mice; conditions: 18 days food-in-diet, 10 and 100 mg/kg/day (FIG. 2)
Procedure: In vivo signaling studies were conducted to examine the biochemical pathways that may be mechanistically involved in the cognitive efficacy associated with Compound AA. An important signaling process that serves as a biochemical correlate of synaptic plasticity underlying learning and memory is the phosphorylation of CREB (c-AMP-response element binding protein), a transcription factor critical to long-term memory.
(§2) Male CD-1 mice were obtained from Charles River, Wilmington, Mass. Mice were group-housed 10 per cage. The body weight upon arrival was 20-25 g. Food and water were available ad libitum except during experiments. […]
Following perfusion, brains were removed and postfixed in 20% sucrose-PBS (phosphate buffered saline) overnight and subsequently cut on a cryostat (40 μm coronal sections) and collected as free-floating sections in PBS. […] Immuno-reactivity (IR) was quantified using an image analysis system (Leica, Quantimet 500) that determined number and/or area of peroxidase substrate-positive stained neurons from digitized photomicrographs according to a pixel gray level empirically determined prior to analysis. Overall statistical significance was determined using a one-way ANOVA, with Dunnett's post hoc analyses used to determine significance (p<0.05 was considered significant).

Male CD-1 mice [3] = test: 24-hour inhibitory avoidance in mice, subchronic (3 administration) dosing; format: in vivo; conditions: 30 mg/kg PO, BID the day before training and one hour before training, vs vehicle control mice (FIG. 3)
Procedure: Male CD-1 mice were obtained from Charles River, Wilmington, Mass. Mice were group-housed 10 per cage. The body weight upon arrival was 20-25 g. Food and water were available ad libitum except during experiments. Animals were acclimated to the animal facilities for a period of at least one week prior to commencement of experiments. Animals were tested in the light phase of a 12-hour light:12-hour dark schedule (lights on 0600 hours).
Compound AA and Compound BB were synthesized at Abbott Laboratories. […] Compound AA was administered in a cloudy, fine suspension, while Compound BB was administered in a solution.
On training day, mice were injected with Compound AA, Compound BB or vehicle one-hour PO before training. One hour following injection (start of training) mice were subjected to a training session in which they were placed in a lighted compartment of a two-compartment chamber (Gemini apparatus, San Diego Instruments, San Diego, Calif.) with a manually operated gate separating the compartments. […] Twenty-four hours later mice were again tested in the same apparatus, except without shock, and the transfer latency from the lighted to the dark compartment recorded and used as an index of memory for the punished response 24 hours earlier. […] Data were analyzed using Mann Whitney U comparisons. […]

Male CD-1 mice [4] = test: 24-hour inhibitory avoidance task in mice, drug-in-diet dosing; format: in vivo; conditions: drug-in-diet 10 and 100 mg/kg/day in Western diet, tested from day 17, vs vehicle control mice (FIG. 1)
Procedure: The 24-hour inhibitory avoidance task in mice is a measure of one-trial learning and memory consolidation in response to a discrete aversive event (foot-shock). Mice are first placed in an illuminated compartment of a two-compartment apparatus. Mice will naturally step through into an adjoining dark compartment, which they prefer. When the mice enter the dark they receive a mild foot-shock. To assess memory, mice are tested 24 hours later and the length of time the animal refrains from entering the dark compartment is recorded (higher latencies indicate improved memory for the aversive event).
as §2
On the first day of testing (17 days after drug-in-diet was presented) mice were removed from the colony room in their home cage, brought to the testing room, and left undisturbed for 2 hours prior to testing initiation. […] The latency to enter the dark chamber was recorded and was the dependent variable measured for assessing memory retention (latency is defined as entry of the whole mouse; all 4 paws on the grids in the dark side, plus the tail in the chamber for 5 sec; 180 sec is maximum latency). Data were analyzed using Mann Whitney U comparisons. […]

HSD-1 = test: Monkey ex vivo HSD1 activity (cortisone to cortisol in harvested tissue); set-up: species or system Cynomolgus Monkeys
Procedure: Harvested tissues (approximately 150 mg) were minced into small, 2 mm pieces in the presence of 5× volume of incubation buffer. Cortisone at final concentrations of 0, 3, 10 or 30 μM was added to each well. Cell culture plates with tissues were incubated at 37° C. for three hours. Two-hundred μL of tissue culture supernatant was then removed and spun at 1000 rpm in an Eppindorf tube, and then 100 μL of resulting supernatant was aliquotted into two tubes for LCMS analysis of cortisol.

| Structure (SMILES) | reduction of total sleep time (Fisher rats; 8 h period) [%] | reduction of number of REM sleep episodes (Fisher rats; 8 h period (FIG. 5a)) [%] | reduction of REM time (Fisher rats; 8 h period (FIG. 5b)) [%] | increase of latency to first REM (Fisher rats; 8 h period (FIG. 5c)) [%] | short-term memory retention (social recognition) (Male Sprague Dawley rats) | ACh release under resting conditions ([1]; acute) | ACh release under challenging conditions (home cage to novel cage and back) ([1]; cortex and hippocampus (FIGS. 6a-6c)) | microdialysate serotonin (5-HT) levels [2] | phosphorylated CREB immuno-reactivity (phosphorylated CREB) | memory retention (transfer latency), 24-hour inhibitory avoidance (Male CD-1 mice [3]) | memory retention (Mean Transfer Latency), 24-hour inhibitory avoidance (Male CD-1 mice [4]) | ex vivo inhibition of monkey brain, fat and liver HSD1 (HSD-1; 2.5 and 16 hours following a single oral 10 mg/kg dose) | HSD-1 ex vivo activity, Mean % Veh Control (HSD-1; Cerebral Cortex, 16 hours after single 10 mg/kg oral dose) [%] | HSD-1 ex vivo activity, Mean % Veh Control (HSD-1; Hippocampus, 16 hours after single 10 mg/kg oral dose) [%] | HSD-1 ex vivo activity, Mean % Veh Control (HSD-1; Liver, 2.5 hours after single 10 mg/kg oral dose) [%] | HSD-1 ex vivo activity, Mean % Veh Control (HSD-1; Liver, 16 hours after single 10 mg/kg oral dose) [%] | HSD-1 ex vivo activity, Mean % Veh Control (HSD-1; Mesenteric Fat, 2.5 hours after single 10 mg/kg oral dose) [%] | HSD-1 ex vivo activity, Mean % Veh Control (HSD-1; Mesenteric Fat, 16 hours after single 10 mg/kg oral dose) [%] |
| --- | --- | --- | --- | --- | --- | --- | --- | --- | --- | --- | --- | --- | --- | --- | --- | --- | --- | --- |
| O=C(CN1CCN(c2ccc(C(F)(F)F)cn2)CC1)NC1C2CC3CC1CC(O)(C3)C2 (stereo not drawn) [Compound CC, N-[(E)-5-Hydroxy-2-adamantyl]-2-{4-[5-(trifluoromethyl)pyridin-2-yl]piperazin-1-yl}acetamide] | 10 | 16 | 23 | 62 | significant improvement in short-term memory retention | did not change ACh release | did not induce any further stimulation of ACh release | long-lasting increase of serotonin (5-HT) levels |  |  |  |  |  |  |  |  |  |  |
| CC(C)(Oc1ccc(F)cc1Cl)C(=O)NC1C2CC3CC1CC(S(C)(=O)=O)(C3)C2 (stereo not drawn) [S, 2-(2-Chloro-4-fluorophenoxy)-2-methyl-N-[(E)-5-(methylsulfonyl)-2-adamantyl]propanamide] |  |  |  |  |  |  |  |  | increase in phosphorylated CREB | significant improvement in memory retention | significant improvement in memory retention | potent ex vivo inhibition | 30 | 42 | 38 | 9 | 90 | 50 |
